Reference: patent US20240383915A1, “OXAZEPINE COMPOUNDS AND USES THEREOF IN THE TREATMENT OF CANCER” (Genentech, Inc., priority 2021, published 2024)

How the values were obtained:
KRas(G12V) = KRas(G12V) (Homo sapiens (Human), UniProt P01116, G12V); assay: KRas(G12V) GDP HTRF (BODIPY-GDP exchange TR-FRET); assay type: biochemical
KRas = KRas (Homo sapiens (Human), UniProt P01116); assay: KRas GDP HTRF (BODIPY-GDP exchange TR-FRET); assay type: biochemical
Method in brief: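 Inhibition of SOS1-mediated exchange of BODIPY-GDP on KRAS G12D, started with 3 nM recombinant human SOS1 and 300 nM BODIPY-GDP and read after 60 min. TR-FRET excitation 337 nm, ratio 520/490 nm ×10,000. IC50 from 4-parameter Hill fit of normalized data.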

SW480 cells = assay: SW480 proliferation assay; assay type: cell-based; settings: Homo sapiens, SW480, SW480; read-out: SW480 Prolif IC50 (G12V)
PC-9 cells = assay: PC9 proliferation assay; assay type: cell-based, human; settings: Homo sapiens, PC-9, PC9; read-out: PC9 Prolif IC50 (G12V)

Chain of KRas (P01116-2 other isoform, or with tags, fused parts or gaps): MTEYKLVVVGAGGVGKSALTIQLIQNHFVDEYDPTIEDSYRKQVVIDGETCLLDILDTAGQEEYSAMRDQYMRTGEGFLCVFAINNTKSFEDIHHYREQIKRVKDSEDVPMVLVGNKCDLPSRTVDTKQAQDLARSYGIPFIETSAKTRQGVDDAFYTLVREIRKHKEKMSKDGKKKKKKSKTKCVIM
Chain of KRas(G12V) (P01116-2 other isoform, or with tags, fused parts or gaps G12V): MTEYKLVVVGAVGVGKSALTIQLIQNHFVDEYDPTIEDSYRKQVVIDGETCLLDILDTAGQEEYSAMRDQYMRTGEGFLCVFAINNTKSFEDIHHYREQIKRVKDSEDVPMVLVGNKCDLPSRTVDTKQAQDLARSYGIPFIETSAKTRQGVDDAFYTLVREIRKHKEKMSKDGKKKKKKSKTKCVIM

Cc1cc(N)nc(-c2c(Cl)c3c4c(nc(OC[C@@H]5C[C@@]6(CN5C)CC6(F)F)nc4c2F)N([C@H](C)c2cccnc2N)CCO3)c1C(F)(F)F (atropisomer, axis not shown) [Example 67, 6-((R)-4-((R)-1-(2-aminopyridin-3-yl)ethyl)-8-chloro-2-(((3S,6S)-1,1-difluoro-5-methyl-5-azaspiro[2.4]heptan-6-yl)methoxy)-10-fluoro-5,6-dihydro-4H-[1,4]oxazepino[5,6,7-de]quinazolin-9-yl)-4-methyl-5-(trifluoromethyl)pyridin-2-amine]
IC50 (KRas(G12V)): 0.17 nM
IC50 (KRas): 0.55 nM
IC50 (SW480 cells): 3.7 nM
IC50 (PC-9 cells): 2800 nM

Cc1cc(N)nc(-c2c(Cl)c3c4c(nc(OC[C@@H]5C[C@]6(CN5C)CC6(F)F)nc4c2F)N([C@H](C)c2cccnc2N)CCO3)c1C(F)(F)F (atropisomer, axis not shown) [Example 68, 6-((R)-4-((R)-1-(2-aminopyridin-3-yl)ethyl)-8-chloro-2-(((3R,6S)-1,1-difluoro-5-methyl-5-azaspiro[2.4]heptan-6-yl)methoxy)-10-fluoro-5,6-dihydro-4H-[1,4]oxazepino[5,6,7-de]quinazolin-9-yl)-4-methyl-5-(trifluoromethyl)pyridin-2-amine]
IC50 (KRas(G12V)): 0.1 nM
IC50 (KRas): 0.31 nM
IC50 (SW480 cells): 11 nM
IC50 (PC-9 cells): 1800 nM

Cc1cc(N)nc(-c2c(Cl)c3c4c(nc(OC[C@@]56CCN5CC(F)(F)C6)nc4c2F)N([C@H](C)c2ccnnc2N)CCO3)c1C(F)(F)F (atropisomer, axis not shown) [Example 77a, 4-((R)-1-((R)-9-(6-amino-4-methyl-3-(trifluoromethyl)pyridin-2-yl)-8-chloro-2-(((S)-3,3-difluoro-1-azabicyclo[3.2.0]heptan-5-yl)methoxy)-10-fluoro-5,6-dihydro-4H-[1,4]oxazepino[5,6,7-de]quinazolin-4-yl)ethyl)pyridazin-3-amine]
IC50 (KRas(G12V)): 0.12 nM
IC50 (KRas): 0.33 nM
IC50 (SW480 cells): 21 nM
IC50 (PC-9 cells): 20000 nM

Cc1cc(N)nc(-c2c(Cl)c3c4c(nc(OC[C@]56CCN5CC(F)(F)C6)nc4c2F)N([C@H](C)c2ccnnc2N)CCO3)c1C(F)(F)F (atropisomer, axis not shown) [Example 77b, 4-((R)-1-((R)-9-(6-amino-4-methyl-3-(trifluoromethyl)pyridin-2-yl)-8-chloro-2-(((R)-3,3-difluoro-1-azabicyclo[3.2.0]heptan-5-yl)methoxy)-10-fluoro-5,6-dihydro-4H-[1,4]oxazepino[5,6,7-de]quinazolin-4-yl)ethyl)pyridazin-3-amine]
IC50 (KRas(G12V)): 0.13 nM
IC50 (KRas): 0.34 nM
IC50 (SW480 cells): 65 nM
IC50 (PC-9 cells): 20000 nM

Cc1cc(N)nc(-c2c(Cl)c3c4c(nc(OC[C@@]56CCN5CC(F)(F)C6)nc4c2F)N([C@H](C)c2cncnc2N)CCO3)c1C(F)(F)F (atropisomer, axis not shown) [Example 82a, 5-((R)-1-((R)-9-(6-amino-4-methyl-3-(trifluoromethyl)pyridin-2-yl)-8-chloro-2-(((S)-3,3-difluoro-1-azabicyclo[3.2.0]heptan-5-yl)methoxy)-10-fluoro-5,6-dihydro-4H-[1,4]oxazepino[5,6,7-de]quinazolin-4-yl)ethyl)pyrimidin-4-amine]
IC50 (KRas(G12V)): 0.11 nM
IC50 (KRas): 0.164 nM
IC50 (SW480 cells): 26 nM
IC50 (PC-9 cells): 6800 nM

Cc1cc(N)nc(-c2c(Cl)c3c4c(nc(OC[C@]56CCN5CC(F)(F)C6)nc4c2F)N([C@H](C)c2cncnc2N)CCO3)c1C(F)(F)F (atropisomer, axis not shown) [Example 82b, 5-((R)-1-((R)-9-(6-amino-4-methyl-3-(trifluoromethyl)pyridin-2-yl)-8-chloro-2-(((R)-3,3-difluoro-1-azabicyclo[3.2.0]heptan-5-yl)methoxy)-10-fluoro-5,6-dihydro-4H-[1,4]oxazepino[5,6,7-de]quinazolin-4-yl)ethyl)pyrimidin-4-amine]
IC50 (KRas(G12V)): 0.12 nM
IC50 (KRas): 0.224 nM
IC50 (SW480 cells): 11 nM
IC50 (PC-9 cells): 7200 nM

Cc1cc(N)nc(-c2c(Cl)c3c4c(nc(OC[C@@H]5CC(F)(F)CN5C)nc4c2F)N([C@H](C)c2cncnc2N)CCO3)c1C(F)(F)F (atropisomer, axis not shown) [Example 83a, 5-((R)-1-((R)-9-(6-amino-4-methyl-3-(trifluoromethyl)pyridin-2-yl)-8-chloro-2-(((S)-4,4-difluoro-1-methylpyrrolidin-2-yl)methoxy)-10-fluoro-5,6-dihydro-4H-[1,4]oxazepino[5,6,7-de]quinazolin-4-yl)ethyl)pyrimidin-4-amine]
IC50 (KRas(G12V)): 0.19 nM
IC50 (KRas): 0.684 nM
IC50 (SW480 cells): 23 nM
IC50 (PC-9 cells): 5900 nM

Cc1cc(N)nc(-c2c(Cl)c3c4c(nc(OC[C@@H]5CCN5CC(F)F)nc4c2F)N([C@H](C)c2cncnc2N)CCO3)c1C(F)(F)F (atropisomer, axis not shown) [Example 84a, 5-((R)-1-((R)-9-(6-amino-4-methyl-3-(trifluoromethyl)pyridin-2-yl)-8-chloro-2-(((S)-1-(2,2-difluoroethyl)azetidin-2-yl)methoxy)-10-fluoro-5,6-dihydro-4H-[1,4]oxazepino[5,6,7-de]quinazolin-4-yl)ethyl)pyrimidin-4-amine]
IC50 (KRas(G12V)): 0.14 nM
IC50 (KRas): 0.389 nM
IC50 (SW480 cells): 73 nM
IC50 (PC-9 cells): 12000 nM

Cc1cc(N)nc(-c2c(Cl)c3c4c(nc(N5CC6(COCCN6)C5)nc4c2F)N([C@H](C)c2cccnc2N)CCO3)c1C(F)(F)F (atropisomer, axis not shown) [Example 90, 6-((R)-4-((R)-1-(2-aminopyridin-3-yl)ethyl)-8-chloro-10-fluoro-2-(8-oxa-2,5-diazaspiro[3.5]nonan-2-yl)-5,6-dihydro-4H-[1,4]oxazepino[5,6,7-de]quinazolin-9-yl)-4-methyl-5-(trifluoromethyl)pyridin-2-amine]
IC50 (KRas(G12V)): 0.22 nM
IC50 (KRas): 0.99 nM
IC50 (SW480 cells): 390 nM
IC50 (PC-9 cells): 6400 nM

Cc1cc(N)nc(-c2c(Cl)c3c4c(nc(OC[C@@]56CCCN5C[C@H](F)C6)nc4c2F)N([C@H](C)c2ccnnc2N)CCO3)c1C(F)(F)F (atropisomer, axis not shown) [Example 133c]
IC50 (SW480 cells): 25 nM
IC50 (PC-9 cells): 7100 nM

Cc1cc(N)nc(-c2c(Cl)c3c4c(nc(OCCN5CCOCC5)nc4c2F)N([C@H](C)c2cccnc2N)CCO3)c1C(F)(F)F (atropisomer, axis not shown) [Example 138, 6-((R)-4-((R)-1-(2-aminopyridin-3-yl)ethyl)-8-chloro-10-fluoro-2-(2-morpholinoethoxy)-5,6-dihydro-4H-[1,4]oxazepino[5,6,7-de]quinazolin-9-yl)-4-methyl-5-(trifluoromethyl)pyridin-2-amine]
IC50 (SW480 cells): 77 nM
IC50 (PC-9 cells): 4900 nM

COC1(CCOc2nc3c4c(c(Cl)c(-c5nc(N)cc(C)c5C(F)(F)F)c(F)c4n2)OCCN3[C@H](C)c2cccnc2N)CCC1 (atropisomer, axis not shown) [Example 150, 6-((R)-4-((R)-1-(2-aminopyridin-3-yl)ethyl)-8-chloro-10-fluoro-2-(2-(1-methoxycyclobutyl)ethoxy)-5,6-dihydro-4H-[1,4]oxazepino[5,6,7-de]quinazolin-9-yl)-4-methyl-5-(trifluoromethyl)pyridin-2-amine]
IC50 (SW480 cells): 790 nM
IC50 (PC-9 cells): 8900 nM

Cc1cc(N)nc(-c2c(Cl)c3c4c(nc(OC[C@@]56CCCN5C[C@H](F)C6)nc4c2F)N(Cc2cnc[nH]2)CCO3)c1C(F)(F)F (single isomer, unassigned) [Example 47a]
IC50 (SW480 cells): 20000 nM
IC50 (PC-9 cells): 7100 nM

Cc1cc(N)nc(-c2cc3nc(OC[C@@]45CCCN4CC(F)(F)C5)nc4c3c(c2Cl)OCCN4Cc2cccnc2N)c1C(F)(F)F [Example 34, (S)-6-(4-((2-aminopyridin-3-yl)methyl)-8-chloro-2-((2,2-difluorotetrahydro-1H-pyrrolizin-7a(5H)-yl)methoxy)-5,6-dihydro-4H-[1,4]oxazepino[5,6,7-de]quinazolin-9-yl)-4-methyl-5-(trifluoromethyl)pyridin-2-amine]
IC50 (SW480 cells): 820 nM
IC50 (PC-9 cells): 4000 nM

Cc1cc(N)nc(-c2cc3nc(OCC45COC(C4)C5)nc4c3c(c2Cl)OCCN4Cc2cccnc2N)c1C(F)(F)F [Example 36, 6-(2-((2-oxabicyclo[2.1.1]hexan-4-yl)methoxy)-4-((2-aminopyridin-3-yl)methyl)-8-chloro-5,6-dihydro-4H-[1,4]oxazepino[5,6,7-de]quinazolin-9-yl)-4-methyl-5-(trifluoromethyl)pyridin-2-amine]
IC50 (SW480 cells): 8200 nM
IC50 (PC-9 cells): 20000 nM

Cc1cc(N)nc(-c2cc3nc(OC[C@]45CCCN4CC(F)(F)C5)nc4c3c(c2Cl)OCCN4Cc2cccnc2N)c1C(F)(F)F [Example 50, (R)-6-(4-((2-aminopyridin-3-yl)methyl)-8-chloro-2-((2,2-difluorotetrahydro-1H-pyrrolizin-7a(5H)-yl)methoxy)-5,6-dihydro-4H-[1,4]oxazepino[5,6,7-de]quinazolin-9-yl)-4-methyl-5-(trifluoromethyl)pyridin-2-amine]
IC50 (SW480 cells): 930 nM
IC50 (PC-9 cells): 6700 nM

Cc1cc(N)nc(-c2c(Cl)c3c4c(nc(OCC56CC(CO5)C6)nc4c2F)N([C@H](C)c2cccnc2N)CCO3)c1C(F)(F)F [Example 143, 6-((R)-2-((2-oxabicyclo[2.1.1]hexan-1-yl)methoxy)-4-((R)-1-(2-aminopyridin-3-yl)ethyl)-8-chloro-10-fluoro-5,6-dihydro-4H-[1,4]oxazepino[5,6,7-de]quinazolin-9-yl)-4-methyl-5-(trifluoromethyl)pyridin-2-amine]
IC50 (SW480 cells): 94 nM
IC50 (PC-9 cells): 10000 nM
